Assay results from patent US10040781B2, “Tank-binding kinase inhibitor compounds” (Gilead Sciences, Inc., priority 2014, dated 2018).

Key:
IKKε = IKKε (Homo sapiens (Human), UniProt Q14164); test: IKKε TR-FRET enzymatic assay; assay type: biochemical; settings: read-out: IKKe IC50
hJAK2 = hJAK2 (Homo sapiens (Human), UniProt O60674); test: hJAK2 LANCE TR-FRET enzymatic assay; assay type: biochemical; settings: read-out: JAK2 IC50
TBK1 = TBK1 (Homo sapiens (Human), UniProt Q9UHD2); test: TBK1 TR-FRET enzymatic assay;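 note: phosphorylation of a biotinylated Ser/Thr peptide by purified full-length recombinant TBK1, read by TR-FRET after 240 min at 25 °C, IC50 is the geometric mean of at least four runs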
TBK1, sequence (Q9UHD2 whole entry): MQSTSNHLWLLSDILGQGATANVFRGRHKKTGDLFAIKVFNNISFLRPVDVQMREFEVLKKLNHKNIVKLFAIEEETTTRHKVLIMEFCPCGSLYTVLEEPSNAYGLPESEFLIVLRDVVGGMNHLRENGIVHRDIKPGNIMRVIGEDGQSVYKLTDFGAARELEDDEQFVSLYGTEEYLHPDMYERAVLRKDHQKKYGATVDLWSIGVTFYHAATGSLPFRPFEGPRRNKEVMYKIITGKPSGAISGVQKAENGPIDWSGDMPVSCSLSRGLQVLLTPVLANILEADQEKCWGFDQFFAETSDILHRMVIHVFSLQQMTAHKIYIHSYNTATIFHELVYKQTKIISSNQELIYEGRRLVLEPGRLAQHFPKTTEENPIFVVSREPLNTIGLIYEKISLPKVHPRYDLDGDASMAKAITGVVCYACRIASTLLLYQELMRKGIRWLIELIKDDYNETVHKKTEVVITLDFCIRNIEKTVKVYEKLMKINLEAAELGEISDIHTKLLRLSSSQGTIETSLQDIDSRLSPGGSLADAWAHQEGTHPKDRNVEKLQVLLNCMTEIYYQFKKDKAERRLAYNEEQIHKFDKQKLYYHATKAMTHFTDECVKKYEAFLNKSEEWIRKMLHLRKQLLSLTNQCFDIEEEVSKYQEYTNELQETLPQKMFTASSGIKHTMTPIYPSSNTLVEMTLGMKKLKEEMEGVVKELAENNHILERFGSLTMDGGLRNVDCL

hJAK2, sequence (O60674 whole entry): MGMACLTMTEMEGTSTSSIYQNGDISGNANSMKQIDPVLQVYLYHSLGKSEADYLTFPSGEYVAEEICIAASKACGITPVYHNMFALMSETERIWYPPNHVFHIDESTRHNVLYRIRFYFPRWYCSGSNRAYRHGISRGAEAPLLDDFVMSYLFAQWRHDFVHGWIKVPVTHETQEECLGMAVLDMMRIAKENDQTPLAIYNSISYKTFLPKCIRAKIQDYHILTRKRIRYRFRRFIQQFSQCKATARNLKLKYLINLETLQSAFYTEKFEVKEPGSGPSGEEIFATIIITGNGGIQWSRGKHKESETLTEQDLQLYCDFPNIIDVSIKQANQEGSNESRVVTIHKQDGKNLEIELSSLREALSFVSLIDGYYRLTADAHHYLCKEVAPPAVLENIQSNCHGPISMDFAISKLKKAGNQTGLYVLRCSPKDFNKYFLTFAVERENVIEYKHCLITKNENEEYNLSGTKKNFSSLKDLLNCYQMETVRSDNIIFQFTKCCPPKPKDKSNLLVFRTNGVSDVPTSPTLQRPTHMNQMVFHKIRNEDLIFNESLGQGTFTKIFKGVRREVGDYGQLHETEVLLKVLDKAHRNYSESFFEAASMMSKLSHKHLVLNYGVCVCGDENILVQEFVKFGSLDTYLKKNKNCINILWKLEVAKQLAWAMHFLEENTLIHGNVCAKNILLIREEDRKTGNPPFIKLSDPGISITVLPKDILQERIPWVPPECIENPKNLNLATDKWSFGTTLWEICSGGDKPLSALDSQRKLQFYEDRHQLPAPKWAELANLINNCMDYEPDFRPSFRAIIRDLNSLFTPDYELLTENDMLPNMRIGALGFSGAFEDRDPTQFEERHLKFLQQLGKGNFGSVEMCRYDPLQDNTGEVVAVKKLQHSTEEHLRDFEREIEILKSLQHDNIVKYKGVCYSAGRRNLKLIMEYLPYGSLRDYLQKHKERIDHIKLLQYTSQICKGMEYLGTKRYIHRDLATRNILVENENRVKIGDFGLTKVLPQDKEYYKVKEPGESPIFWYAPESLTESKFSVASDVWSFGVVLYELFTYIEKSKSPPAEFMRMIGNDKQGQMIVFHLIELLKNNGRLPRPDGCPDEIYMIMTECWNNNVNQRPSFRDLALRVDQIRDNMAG
IKKε, sequence (Q14164 whole entry): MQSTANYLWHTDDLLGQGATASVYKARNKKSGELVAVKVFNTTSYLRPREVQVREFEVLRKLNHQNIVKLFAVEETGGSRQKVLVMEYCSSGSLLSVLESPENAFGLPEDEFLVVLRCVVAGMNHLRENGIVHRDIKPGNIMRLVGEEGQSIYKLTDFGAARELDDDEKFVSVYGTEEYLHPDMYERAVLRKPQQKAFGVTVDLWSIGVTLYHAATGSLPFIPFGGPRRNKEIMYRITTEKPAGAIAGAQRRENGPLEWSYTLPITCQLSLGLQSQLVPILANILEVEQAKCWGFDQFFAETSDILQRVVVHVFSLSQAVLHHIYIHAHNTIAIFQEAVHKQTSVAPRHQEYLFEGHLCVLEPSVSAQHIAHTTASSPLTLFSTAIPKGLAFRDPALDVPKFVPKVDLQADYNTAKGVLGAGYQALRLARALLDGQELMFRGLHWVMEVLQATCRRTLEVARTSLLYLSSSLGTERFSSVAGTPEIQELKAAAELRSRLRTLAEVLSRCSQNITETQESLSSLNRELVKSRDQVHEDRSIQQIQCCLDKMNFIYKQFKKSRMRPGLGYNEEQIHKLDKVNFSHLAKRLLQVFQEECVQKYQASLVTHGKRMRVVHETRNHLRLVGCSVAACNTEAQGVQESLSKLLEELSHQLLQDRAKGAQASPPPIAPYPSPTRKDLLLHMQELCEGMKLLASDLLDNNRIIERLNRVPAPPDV

IC50 (IKKε) [nM] | IC50 (hJAK2) [nM] | IC50 (TBK1) [nM] | SMILES
4 | ≥ 1000 | 4 | C[C@H](O)C(=O)N1CC[C@H](Oc2ccc(-c3ncnc(Nc4cnn(CC(F)F)c4)n3)cc2C#N)[C@H](F)C1 [Example 352, 5-(4-((1-(2,2-difluoroethyl)-1H-pyrazol-4-yl)amino)-1,3,5-triazin-2-yl)-2-(((3R,4S)-3-fluoro-1-((S)-2-hydroxypropanoyl)piperidin-4-yl)oxy)benzonitrile]
10 | 944 | 7 | C[C@H](O)C(=O)N1CC[C@H](Oc2ccc(-c3ncnc(Nc4cnn(C5COC5)c4)n3)cc2C#N)[C@H](F)C1 [Example 353, 2-(((3R,4S)-3-fluoro-1-((S)-2-hydroxypropanoyl)piperidin-4-yl)oxy)-5-(4-((1-(oxetan-3-yl)-1H-pyrazol-4-yl)amino)-1,3,5-triazin-2-yl)benzonitrile]
5 | 309 | 6 | C[C@H](O)C(=O)N1CC[C@H](Oc2ccc(-c3ncnc(Nc4cnn(C5CCOCC5)c4)n3)cc2C#N)[C@H](F)C1 [Example 354, 2-(((3R,4S)-3-fluoro-1-((S)-2-hydroxypropanoyl)piperidin-4-yl)oxy)-5-(4-((1-(tetrahydro-2H-pyran-4-yl)-1H-pyrazol-4-yl)amino)-1,3,5-triazin-2-yl)benzonitrile]
3 | 550 | 2 | N#Cc1cc(-c2ncnc(Nc3ccc(N4CCN(C5COC5)CC4)cc3)n2)ccc1O[C@H]1CCN(C(=O)c2cn[nH]c2)C[C@H]1F [Example 356, 2-(((3R,4S)-3-fluoro-1-(1H-pyrazole-4-carbonyl)piperidin-4-yl)oxy)-5-(4-((4-(4-(oxetan-3-yl)piperazin-1-yl)phenyl)amino)-1,3,5-triazin-2-yl)benzonitrile]
2 | 511 | 4 | C[C@H](O)C(=O)N1CC[C@H](Oc2ccc(-c3ncnc(Nc4ccc(N5CCC[C@@H](O)C5)cc4)n3)cc2C#N)[C@H](F)C1 [Example 357, 2-(((3R,4S)-3-fluoro-1-((S)-2-hydroxypropanoyl)piperidin-4-yl)oxy)-5-(4-((4-((R)-3-hydroxypiperidin-1-yl)phenyl)amino)-1,3,5-triazin-2-yl)benzonitrile]
11 | ≥ 1000 | 6 | C[C@H](O)C(=O)N1CC[C@H](Oc2ccc(-c3ncnc(Nc4cnc(N5CCN(C6COC6)CC5)c(F)c4)n3)cc2C#N)[C@H](F)C1 [Example 358, 2-(((3R,4S)-3-fluoro-1-((S)-2-hydroxypropanoyl)piperidin-4-yl)oxy)-5-(4-((5-fluoro-6-(4-(oxetan-3-yl)piperazin-1-yl)pyridin-3-yl)amino)-1,3,5-triazin-2-yl)benzonitrile]
37 | 995 | 17 | C[C@H](O)C(=O)N1CCCC(Oc2ccc(-c3ncnc(Nc4ccc(N5CCN(C6COC6)CC5)cc4)n3)cc2C#N)CC1 (stereo partly drawn) [Example 359, 2-((1-((S)-2-hydroxypropanoyl)azepan-4-yl)oxy)-5-(4-((4-(4-(oxetan-3-yl)piperazin-1-yl)phenyl)amino)-1,3,5-triazin-2-yl)benzonitrile]
2 | 185 | 3 | CCn1cc(Nc2ncnc(-c3ccc(O[C@H]4CCN(C(=O)CO)C[C@H]4F)c(C#N)c3)n2)cn1 [Example 360, 5-(4-((1-ethyl-1H-pyrazol-4-yl)amino)-1,3,5-triazin-2-yl)-2-(((3R,4S)-3-fluoro-1-(2-hydroxyacetyl)piperidin-4-yl)oxy)benzonitrile]
1 | 317 | 2 | N#Cc1cc(-c2ncnc(Nc3cnn(CC(F)F)c3)n2)ccc1O[C@H]1CCN(C(=O)CO)C[C@H]1F [Example 361, 5-(4-((1-(2,2-difluoroethyl)-1H-pyrazol-4-yl)amino)-1,3,5-triazin-2-yl)-2-(((3R,4S)-3-fluoro-1-(2-hydroxyacetyl)piperidin-4-yl)oxy)benzonitrile]
1 | 665 | 3 | C[C@H](O)C(=O)N1CC[C@H](Oc2ccc(-c3ncnc(Nc4ccc(N5CCCOCC5)cc4)n3)cc2C#N)[C@H](F)C1 [Example 363, 5-(4-((4-(1,4-oxazepan-4-yl)phenyl)amino)-1,3,5-triazin-2-yl)-2-(((3R,4S)-3-fluoro-1-((S)-2-hydroxypropanoyl)piperidin-4-yl)oxy)benzonitrile]
4 | 634 | 5 | C[C@H](O)C(=O)N1CC[C@H](Oc2ccc(-c3ncnc(Nc4ccc(N5CC6(COC6)C5)cc4)n3)cc2C#N)[C@H](F)C1 [Example 364, 5-(4-((4-(2-oxa-6-azaspiro[3.3]heptan-6-yl)phenyl)amino)-1,3,5-triazin-2-yl)-2-(((3R,4S)-3-fluoro-1-((S)-2-hydroxypropanoyl)piperidin-4-yl)oxy)benzonitrile]
2 | 474 | 4 | C[C@H](O)C(=O)N1CC[C@H](Oc2ccc(-c3ncnc(Nc4ccc(N5CCC6(CC5)COC6)cc4)n3)cc2C#N)[C@H](F)C1 [Example 365, 5-(4-((4-(2-oxa-7-azaspiro[3.5]nonan-7-yl)phenyl)amino)-1,3,5-triazin-2-yl)-2-(((3R,4S)-3-fluoro-1-((S)-2-hydroxypropanoyl)piperidin-4-yl)oxy)benzonitrile]
2 | ≥ 1000 | 3 | C[C@H](O)C(=O)N1CC[C@H](Oc2ccc(-c3ncnc(Nc4ccc(N5CCN(C6COC6)CC5)c(F)c4)n3)cc2C#N)[C@H](F)C1 [Example 367, 2-(((3R,4S)-3-fluoro-1-((S)-2-hydroxypropanoyl)piperidin-4-yl)oxy)-5-(4-((3-fluoro-4-(4-(oxetan-3-yl)piperazin-1-yl)phenyl)amino)-1,3,5-triazin-2-yl)benzonitrile]
2 | 225 | 3 | N#Cc1cc(-c2ncnc(Nc3ccc(N4CCN(C5COC5)CC4)c(C(F)(F)F)c3)n2)ccc1O[C@H]1CCN(C(=O)CO)C[C@H]1F [Example 368, 2-(((3R,4S)-3-fluoro-1-(2-hydroxyacetyl)piperidin-4-yl)oxy)-5-(4-((4-(4-(oxetan-3-yl)piperazin-1-yl)-3-(trifluoromethyl)phenyl)amino)-1,3,5-triazin-2-yl)benzonitrile]
8 | 875 | 5 | C[C@H](O)C(=O)N1CC[C@H](Oc2ccc(-c3ncnc(Nc4ccc(N5CCN(C6COC6)CC5)c(C(F)(F)F)c4)n3)cc2C#N)[C@H](F)C1 [Example 370, 2-(((3R,4S)-3-fluoro-1-((S)-2-hydroxypropanoyl)piperidin-4-yl)oxy)-5-(4-((4-(4-(oxetan-3-yl)piperazin-1-yl)-3-(trifluoromethyl)phenyl)amino)-1,3,5-triazin-2-yl)benzonitrile]
1 | 989 | 2 | C[C@H](O)C(=O)N1CC[C@H](Oc2ccc(-c3ncnc(Nc4ccc(N5CCN(C6COC6)CC5)c(C(F)F)c4)n3)cc2C#N)[C@H](F)C1 [Example 371, 5-(4-((3-(difluoromethyl)-4-(4-(oxetan-3-yl)piperazin-1-yl)phenyl)amino)-1,3,5-triazin-2-yl)-2-(((3R,4S)-3-fluoro-1-((S)-2-hydroxypropanoyl)piperidin-4-yl)oxy)benzonitrile]
5 | 305 | 4 | N#Cc1cc(-c2ncnc(Nc3ccc(N4CCN(C5COC5)CC4)c(F)c3)n2)ccc1O[C@H]1CCN(C(=O)[C@@H]2CCC(=O)N2)C[C@H]1F [Example 372, 2-(((3R,4S)-3-fluoro-1-((S)-5-oxopyrrolidine-2-carbonyl)piperidin-4-yl)oxy)-5-(4-((3-fluoro-4-(4-(oxetan-3-yl)piperazin-1-yl)phenyl)amino)-1,3,5-triazin-2-yl)benzonitrile]
1 | 146 | 2 | N#Cc1cc(-c2ncnc(Nc3ccc(N4CCN(C5COC5)CC4)c(F)c3)n2)ccc1O[C@H]1CCN(C(=O)c2cnn[nH]2)C[C@H]1F [Example 373, 2-(((3R,4S)-3-fluoro-1-(1H-1,2,3-triazole-5-carbonyl)piperidin-4-yl)oxy)-5-(4-((3-fluoro-4-(4-(oxetan-3-yl)piperazin-1-yl)phenyl)amino)-1,3,5-triazin-2-yl)benzonitrile]
≥ 1000 | ≥ 1000 | 1000 | N#Cc1cc(-c2ncnc(Nc3ccc(N4CCN(C5COC5)CC4)cc3F)n2)ccc1O[C@H]1CCN(C(=O)[C@@H]2CCC(=O)N2)C[C@H]1F [Example 374, 2-(((3R,4S)-3-fluoro-1-((S)-5-oxopyrrolidine-2-carbonyl)piperidin-4-yl)oxy)-5-(4-((2-fluoro-4-(4-(oxetan-3-yl)piperazin-1-yl)phenyl)amino)-1,3,5-triazin-2-yl)benzonitrile]
≥ 1000 | ≥ 1000 | 1000 | C[C@H](O)C(=O)N1CC[C@H](Oc2ccc(-c3ncnc(Nc4ccc(N5CCN(C6COC6)CC5)cc4F)n3)cc2C#N)[C@H](F)C1 [Example 375, 2-(((3R,4S)-3-fluoro-1-((S)-2-hydroxypropanoyl)piperidin-4-yl)oxy)-5-(4-((2-fluoro-4-(4-(oxetan-3-yl)piperazin-1-yl)phenyl)amino)-1,3,5-triazin-2-yl)benzonitrile]
3 | 127 | 5 | N#Cc1cc(-c2ncnc(Nc3ccc(N4CCN(C5COC5)CC4)cc3)n2)ccc1O[C@H]1CCN(C(=O)c2cn(CCO)nn2)C[C@H]1F [Example 376]
3 | ≥ 1000 | 5 | C[C@H](O)C(=O)N1CC[C@H](Oc2ccc(-c3ncnc(Nc4ccc(N5CCN(C6COC6)CC5)nc4)n3)cc2C#N)[C@H](F)C1 [Example 379, 2-(((3R,4S)-3-fluoro-1-((S)-2-hydroxypropanoyl)piperidin-4-yl)oxy)-5-(4-((6-(4-(oxetan-3-yl)piperazin-1-yl)pyridin-3-yl)amino)-1,3,5-triazin-2-yl)benzonitrile]
